Among the data in patent US10323019B2, “Pyrazolylaminobenzimidazole derivatives as JAK inhibitors” (Eli Lilly and Company, priority 2016, dated 2019) are IC50 values, retold here.

The structures appear in SMILES notation.

As usually defined, the IC50 is the midpoint of a concentration-inhibition curve. Lower therefore signals greater potency.

The target in one test is JAK3 (Homo sapiens (Human), UniProt P52333). Kind of test: JAK LanthaScreen Kinase Assay (TR-FRET), JAK3 in vitro enzyme assay. The test is classed as biochemical. To be noted: 20.0 μM ATP. The procedure:
(§1) The JAK LanthaScreen™ Kinase Assay (Invitrogen) is used to determine the ability of test compounds to inhibit JAK1, JAK2, and JAK3 kinase activity. These are TR-FRET assay formats that use long-lifetime terbium labeled antibody as the donor species and GFP-STAT1 as the acceptor species. Use the TR-FRET ratio to monitor JAK kinase activity where an increase in phosphorylation of the GFP-STAT1 results in an increase in the TR-FRET ratio. Perform the kinase reaction using a 12.5 μl reaction volume in shallow black 384-well Proxiplate®. Add reagents to obtain final reaction conditions of […], 1.76 mM Triton X-100, ATP (20.0 μM for JAK1 and JAK3 or 5 μM for JAK2) enzyme assays, 10.0 mM MgCl2, 1 mM EGTA and 0.01% Brij-35, […] GFP-STAT1, 14 nM JAK1 enzyme for JAK1, 1.0 nM for JAK2 or 2.5 nM for JAK3 enzyme assays, and 4% DMSO and serial dilutions of test compound (diluted 1:3 from 20,000 to 1 nM). Following ATP/GFP-STAT1 addition, centrifuge the assay plates for 1 minute at 1000 revolutions per minute (RPM). Allow the plates to incubate at RT for 60 minutes and then add 12.5 μl of a stopping buffer containing 20 mM EDTA, 2 nM Terbium-anti-phosphorylated Signal Transducers and Activators of Transcription [phosphorylation Tyrosine 701 amino acid] […] Use ACTIVITYBASE® 4.0 to fit the percent inhibition and ten-point compound concentration data to a four-parameter logistic equation.

The target in a further test is JAK1 (Homo sapiens (Human), UniProt P23458). Kind of test: Human whole blood assay: pSTAT3 (JAK1) in lymphocytes, IL6 stimulated. Format: cell-based. Conditions: IL6, pSTAT3 in CD4+ lymphocytes. From the text: (§2) Human Whole Blood Assays: Determination of pSTAT3 (JAK1) and pSTAT5 (JAK2) in Lymphocytes and Monocytes
Chain of JAK1 (P23458 whole entry): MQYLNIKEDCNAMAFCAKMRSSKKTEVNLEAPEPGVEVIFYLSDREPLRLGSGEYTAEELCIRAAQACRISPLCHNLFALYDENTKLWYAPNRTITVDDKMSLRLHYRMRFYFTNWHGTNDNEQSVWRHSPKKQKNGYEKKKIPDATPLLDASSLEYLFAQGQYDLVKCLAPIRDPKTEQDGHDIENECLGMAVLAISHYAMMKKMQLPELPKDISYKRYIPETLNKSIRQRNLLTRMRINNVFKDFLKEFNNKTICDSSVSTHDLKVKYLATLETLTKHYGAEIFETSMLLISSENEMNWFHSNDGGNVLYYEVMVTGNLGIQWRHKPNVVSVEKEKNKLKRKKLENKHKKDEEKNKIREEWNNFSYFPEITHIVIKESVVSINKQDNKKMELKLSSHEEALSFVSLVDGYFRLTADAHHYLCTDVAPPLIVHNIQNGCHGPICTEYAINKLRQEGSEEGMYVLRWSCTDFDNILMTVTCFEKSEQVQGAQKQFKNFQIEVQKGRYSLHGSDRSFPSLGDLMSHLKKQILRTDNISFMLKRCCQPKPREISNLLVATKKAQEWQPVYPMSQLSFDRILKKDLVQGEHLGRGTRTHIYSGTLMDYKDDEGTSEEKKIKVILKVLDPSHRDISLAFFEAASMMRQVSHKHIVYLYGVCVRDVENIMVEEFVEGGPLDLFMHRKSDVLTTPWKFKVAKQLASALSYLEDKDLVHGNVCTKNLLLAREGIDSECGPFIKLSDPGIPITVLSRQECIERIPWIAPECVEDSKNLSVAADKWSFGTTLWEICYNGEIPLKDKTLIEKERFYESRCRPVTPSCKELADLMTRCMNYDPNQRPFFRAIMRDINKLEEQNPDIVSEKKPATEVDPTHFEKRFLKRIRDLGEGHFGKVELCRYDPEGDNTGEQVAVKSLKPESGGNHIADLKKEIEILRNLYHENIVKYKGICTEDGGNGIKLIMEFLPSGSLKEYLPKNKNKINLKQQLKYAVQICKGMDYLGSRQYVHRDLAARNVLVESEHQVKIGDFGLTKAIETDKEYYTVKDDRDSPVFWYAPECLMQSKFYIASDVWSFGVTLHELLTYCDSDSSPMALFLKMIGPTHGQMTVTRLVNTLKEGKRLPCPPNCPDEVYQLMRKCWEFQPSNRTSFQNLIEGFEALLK
(§3) Human whole blood (HWB) assays were developed and validated to determine the JAK1 and JAK2 selectivity of test compounds.
(§4) Dilute the test compounds, 10 points, (1:3) in DMSO 100% and a step down in PBS+0.1% BSA. Use Tofacitinib as a reference compound in each plate, as well as a maximum signal (stimulated wells) and a minimum signal (no stimulated wells) in order to normalize data. Obtain a pool of HWB from 4 different healthy donors. Plate the blood in a 96 well plate using a Tecan Evo 96w and incubate with test compounds for 1 h at RT. After this time of incubation, stimulate HWB with both IL6 (206-IL, R&D System) and GM-CSF (PHC2015, Life Technologies) for 15 more minutes. Add a viability dye (65-0865, eBiosicience) (1:1000) using a Tecan Evo 96w (5×mix).
(§5) The final concentrations in the assay are the following: 100 (μM for compounds, 50 μM for Tofacitinib, 0.1 μg/mL IL6, 0.038 μg/mL GM-CSF and 1% DMSO. Lyse and fix HWB using a Lyse/fix buffer (558049, Becton Dickinson) by adding 900 μL of lysis buffer using Tecan Evo 96w (mix 10× high speed). Incubate HWB in bath at 37° C. for 10 minutes. Centrifuge HWB at 500 G, 8 min and discard supernatant. Add cold MeOH using a Tecan Exo 96w in order to permeabilize cells. Incubate blood cells on ice during 30 min. After this, wash cells 2× using Staining buffer (554656, Becton Dickinson), spin at 3000 rpm, 2 min. discard supernatant, and add the following antibodies: Anti-Human CD4 PE, 1:100 (12-0048, eBioscience), Anti-Human CD33 eFluor® 450, 1:50 (48-0337, eBioscience), Phospho-STAT5 (Tyr694) (C71E5) Rabbit mAb, 1:100 (Alexa Fluor® 488 Conjugate) (3939, Cell Signaling) and Phospho-STAT3 (Tyr705) (D3A7) XP™ Rabbit mAb 1:200, (Alexa Fluor® 647 Conjugate) (4324, Cell Signaling). Incubate the antibodies for 1 h in dark at RT, then wash cells 2× and read on Cytometer Macsquant (Miltenyi Biotec). Gate the data on CD4+ (lymphocytes) and CD4Low CD33Hi (monocytes), to measure the fluorescence intensity from cells expressing pSTAT3 and pSTAT5, respectively. Analyze the data using FlowJo v 10 and then normalize the median of fluorescence versus maximum and minimum signal to determine the IC50s. Use Graph Pad Prism 5™ to represent the dose response curves.

For test [1], the target named is T1, JAK2 (Homo sapiens (Human), UniProt O60674). Kind of test: JAK LanthaScreen Kinase Assay (TR-FRET), JAK2 in vitro enzyme assay. The test is classed as biochemical. Conditions: 5 μM ATP. The procedure:
as §1
Background: TR-FRET usually uses a lanthanide donor and a delayed reading to cut background.

The target of test [2] is T1, JAK2. Kind of test: Human whole blood assay: pSTAT5 (JAK2) in monocytes, GM-CSF stimulated. The test is classed as cell-based. Conditions: pSTAT5 in CD4Low CD33Hi monocytes.
Excerpt: as §2, §3, §4, §5

T1 sequence (O60674 whole entry): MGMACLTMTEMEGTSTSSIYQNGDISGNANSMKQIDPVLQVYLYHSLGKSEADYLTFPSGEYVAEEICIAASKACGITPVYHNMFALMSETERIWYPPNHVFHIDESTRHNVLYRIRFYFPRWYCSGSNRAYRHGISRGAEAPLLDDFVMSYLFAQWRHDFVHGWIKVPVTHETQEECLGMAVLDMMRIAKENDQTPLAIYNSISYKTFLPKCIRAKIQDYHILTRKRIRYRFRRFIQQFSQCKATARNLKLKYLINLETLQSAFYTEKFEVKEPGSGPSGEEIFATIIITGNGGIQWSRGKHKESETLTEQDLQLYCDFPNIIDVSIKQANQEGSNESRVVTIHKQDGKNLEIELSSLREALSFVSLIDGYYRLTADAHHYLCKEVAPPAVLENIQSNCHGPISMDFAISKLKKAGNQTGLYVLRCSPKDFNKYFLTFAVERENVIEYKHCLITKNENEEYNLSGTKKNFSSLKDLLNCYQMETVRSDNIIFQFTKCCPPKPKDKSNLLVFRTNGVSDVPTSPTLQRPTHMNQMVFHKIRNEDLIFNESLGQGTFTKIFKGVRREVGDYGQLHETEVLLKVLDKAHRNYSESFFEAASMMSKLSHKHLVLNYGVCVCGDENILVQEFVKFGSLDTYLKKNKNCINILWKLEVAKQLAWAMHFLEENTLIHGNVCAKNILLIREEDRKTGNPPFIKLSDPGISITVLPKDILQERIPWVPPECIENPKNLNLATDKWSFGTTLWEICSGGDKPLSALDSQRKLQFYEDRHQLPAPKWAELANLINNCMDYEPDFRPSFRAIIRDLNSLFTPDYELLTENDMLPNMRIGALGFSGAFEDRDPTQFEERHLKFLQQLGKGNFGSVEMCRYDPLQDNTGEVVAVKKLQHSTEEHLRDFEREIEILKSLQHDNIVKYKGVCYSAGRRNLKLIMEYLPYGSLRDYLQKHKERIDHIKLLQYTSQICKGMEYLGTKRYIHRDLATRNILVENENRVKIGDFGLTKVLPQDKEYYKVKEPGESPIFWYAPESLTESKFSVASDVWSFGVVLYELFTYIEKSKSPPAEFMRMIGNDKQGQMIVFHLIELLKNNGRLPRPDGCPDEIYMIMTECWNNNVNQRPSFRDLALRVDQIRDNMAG
Chain of JAK3 (P52333 whole entry): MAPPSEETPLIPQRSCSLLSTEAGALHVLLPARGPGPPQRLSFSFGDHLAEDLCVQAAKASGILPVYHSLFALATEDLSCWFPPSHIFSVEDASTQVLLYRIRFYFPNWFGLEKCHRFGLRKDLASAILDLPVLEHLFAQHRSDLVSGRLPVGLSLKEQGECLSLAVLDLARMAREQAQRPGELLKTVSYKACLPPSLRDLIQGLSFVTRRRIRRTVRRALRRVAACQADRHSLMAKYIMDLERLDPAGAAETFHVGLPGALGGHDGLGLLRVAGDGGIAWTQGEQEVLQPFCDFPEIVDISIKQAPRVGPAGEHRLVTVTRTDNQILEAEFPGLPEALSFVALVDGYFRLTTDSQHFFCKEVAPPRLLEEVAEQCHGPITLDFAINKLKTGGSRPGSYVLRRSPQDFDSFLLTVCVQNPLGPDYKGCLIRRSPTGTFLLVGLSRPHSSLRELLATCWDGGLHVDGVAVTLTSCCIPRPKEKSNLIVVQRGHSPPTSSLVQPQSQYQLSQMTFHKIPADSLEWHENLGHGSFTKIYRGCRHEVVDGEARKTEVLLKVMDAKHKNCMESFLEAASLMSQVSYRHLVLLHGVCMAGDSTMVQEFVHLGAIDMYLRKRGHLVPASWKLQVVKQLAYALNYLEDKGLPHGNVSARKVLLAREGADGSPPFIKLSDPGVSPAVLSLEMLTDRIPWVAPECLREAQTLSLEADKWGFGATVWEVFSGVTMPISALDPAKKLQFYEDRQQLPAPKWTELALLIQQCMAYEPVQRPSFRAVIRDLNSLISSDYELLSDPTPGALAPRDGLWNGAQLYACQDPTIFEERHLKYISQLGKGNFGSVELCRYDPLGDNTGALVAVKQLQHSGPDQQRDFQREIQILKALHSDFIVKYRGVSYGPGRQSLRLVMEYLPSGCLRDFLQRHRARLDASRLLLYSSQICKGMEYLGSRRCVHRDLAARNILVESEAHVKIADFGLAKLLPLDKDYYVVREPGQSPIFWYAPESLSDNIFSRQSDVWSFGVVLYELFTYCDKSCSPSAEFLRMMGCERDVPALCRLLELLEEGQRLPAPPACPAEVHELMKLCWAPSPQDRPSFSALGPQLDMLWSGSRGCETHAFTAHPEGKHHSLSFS

On to `COc1cc(Nc2cc(O[C@H]3CC[C@@H](NC[C@@H](O)C(F)(F)F)CC3)cc3c2ncn3C)nn1C` [Example 6, (2R)-1,1,1-Trifluoro-3-{[cis-4-({4-[(5-methoxy-1-methyl-1H-pyrazol-3-yl)amino]-1-methyl-1H-benzimidazol-6-yl}oxy)cyclohexyl]amino}propan-2-ol], for which the IC50 against JAK3 turned out to be 2.54 ± 0.51 µM; at JAK1 it was 3.65 ± 0.79 µM; at JAK2 [1] it was 0.768 ± 0.22 µM; against JAK2 [2], 20.3 ± 6.3 µM.
